Assay results reported in US10829520B2, “Beta-hairpin peptidomimetics” (POLYPHOR AG, priority 2015, dated 2020).
Where a SMILES comes first, the peptide text is derived from it. Bridges are numbered along the chain shown (N, C = ends). [ ]: non-standard residue; d: D form. Tle = CC(C)(C)[C@H](N)C(=O)O; Nle = CCCC[C@H](N)C(=O)O; Orn = NCCC[C@H](N)C(=O)O; Dab = NCC[C@H](N)C(=O)O

Key:
Assay type in all cases: cell-based
[1] = system: Acinetobacter baumannii DSM 30008; settings: DSM 30008
How it was run: (§1)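 Read-out is the minimal inhibitory concentration in μg/mL, taken as the lowest peptide level without visible growth after 18-20 h at 35° C. Testing followed CLSI broth microdilution in cation-adjusted Mueller-Hinton II broth plus 0.002% Polysorbate 80, with roughly 10^6 CFU/mL.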

[2] = system: Pseudomonas aeruginosa ATCC 27853; settings: ATCC 27853
How it was run: as §1

[3] = system: Klebsiella pneumoniae SSI #3010; settings: SSI #3010
How it was run: as §1

[4] = system: Klebsiella pneumoniae 968733; settings: 968733
[5] = system: Escherichia coli ATCC 25922; settings: ATCC 25922
How it was run: as §1

[6] = system: Acinetobacter baumannii 872842; settings: 872842
Escherichia coli 926415 = settings: 926415
[7] = system: human red blood cells (hRBC); test: Hemolysis of human red blood cells; settings: red cells of human, 1 h
How it was run: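 Hemolysis was read as supernatant absorbance at 540 nm and expressed as a percentage of Triton X-100 (2.5%) lysis. Washed human red cells (20% v/v) had been exposed to each peptide at 100 μg/mL for 1 h at 37° C.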

| SMILES | Acinetobacter baumannii DSM 30008 MIC [1] [µg/mL] | Pseudomonas aeruginosa ATCC 27853 MIC [2] [µg/mL] | Klebsiella pneumoniae SSI #3010 MIC [3] [µg/mL] | Klebsiella pneumoniae 968733 MIC [4] [µg/mL] | Escherichia coli ATCC 25922 MIC [5] [µg/mL] | Acinetobacter baumannii 872842 MIC [6] [µg/mL] | Escherichia coli 926415 MIC (Escherichia coli 926415) [µg/mL] | Hemolysis at 100 μg/mL [7]; 100 [%] | Hemolysis at 100 μg/mL ([7]; 100 μg/mL) [%] |
| --- | --- | --- | --- | --- | --- | --- | --- | --- | --- |
| CCCC[C@@H]1NC(=O)[C@@H]2CCCN2C(=O)[C@H]2CCCN2C(=O)[C@H](CO)NC(=O)[C@H](C)NC(=O)[C@H](C(C)(C)C)NC(=O)[C@H](CCN)NC(=O)[C@H](Cc2c[nH]c3ccccc23)NC(=O)[C@@H](NC(C)=O)CCNC(=O)CC[C@@H](C(=O)N[C@@H](CCN)C(=O)N[C@H]2CCNC(=O)[C@H]([C@@H](C)O)NC(=O)[C@H](CCN)NC(=O)[C@H](CCN)NC(=O)[C@H](CC(C)C)NC(=O)[C@@H](Cc3ccccc3)NC(=O)[C@H](CCN)NC2=O)NC(=O)[C@H](CCCN)NC(=O)[C@H](CCN)NC(=O)[C@H](Cc2ccc(O)cc2)NC(=O)[C@H](CO)NC1=O [Ex. 59] (Ac-[Dab]W[Dab][Tle]AS[dP]P[Nle]SY[Dab][Orn]E[Dab][Dab][Dab][dF]L[Dab][Dab]T; lactam 1-14, 16-C) | 0.5 | 1 | 0.5 | 2 | 0.25 | 2 | 0.5 | <1 | – |
| CCCC[C@@H]1NC(=O)[C@@H]2CCCN2C(=O)[C@H]2CCCN2C(=O)[C@H](CO)NC(=O)[C@H](C)NC(=O)[C@H](C(C)(C)C)NC(=O)[C@H](CCN)NC(=O)[C@H](Cc2c[nH]c3ccccc23)NC(=O)[C@@H](N)CSSC[C@@H](C(=O)N[C@H](CCN)C(=O)N[C@H]2CCN(C)C(=O)[C@H](C(C)C)NC(=O)[C@H](CCN)NC(=O)[C@H](CCN)NC(=O)[C@H](CC(C)C)NC(=O)[C@@H](Cc3ccccc3)NC(=O)[C@H](CCN)NC2=O)NC(=O)[C@H](CCCN)NC(=O)[C@H](CCN)NC(=O)[C@H](Cc2ccc(O)cc2)NC(=O)[C@H](CO)NC1=O [Ex. 216] | 0.125 | 0.5 | 0.125 | 0.25 | 0.125 | 0.5 | 0.0625 | – | 1 |
| CCCC[C@@H]1NC(=O)[C@@H]2CCCN2C(=O)[C@H]2CCCN2C(=O)[C@H](CO)NC(=O)[C@H](C)NC(=O)[C@H](C(C)(C)C)NC(=O)[C@@H](NC(=O)[C@@H](N)Cc2c[nH]c3ccccc23)CSSC[C@@H](C(=O)N[C@@H](CCCN)C(=O)N[C@@H](CCN)C(=O)N[C@H]2CCNC(=O)[C@H]([C@@H](C)O)NC(=O)[C@H](CCN)NC(=O)[C@H](CCN)NC(=O)[C@H](CC(C)C)NC(=O)[C@@H](Cc3ccccc3)NC(=O)[C@H](CCN)NC2=O)NC(=O)[C@H](Cc2ccc(O)cc2)NC(=O)[C@H](CO)NC1=O [Ex. 45] (H-WC[Tle]AS[dP]P[Nle]SYC[Orn][Dab][Dab][Dab][dF]L[Dab][Dab]T; disulfide 2-11; lactam 14-C) | 0.125 | 0.5 | 0.125 | 0.25 | 0.125 | 0.25 | 0.25 | – | 1 |
| CCCC[C@@H]1NC(=O)[C@@H]2CCCN2C(=O)[C@H]2CCCN2C(=O)[C@H](CO)NC(=O)[C@H](C)NC(=O)[C@H](C(C)(C)C)NC(=O)[C@@H](NC(=O)[C@H](Cc2c[nH]c3ccccc23)NC(C)=O)CSSC[C@@H](C(=O)N[C@@H](CCCN)C(=O)N[C@@H](CCN)C(=O)N[C@H]2CCNC(=O)[C@H]([C@@H](C)O)NC(=O)[C@H](CCN)NC(=O)[C@H](CCN)NC(=O)[C@H](CC(C)C)NC(=O)[C@@H](CC(C)C)NC(=O)[C@H](CCN)NC2=O)NC(=O)[C@H](Cc2ccc(O)cc2)NC(=O)[C@H](CO)NC1=O [Ex. 54] (Ac-WC[Tle]AS[dP]P[Nle]SYC[Orn][Dab][Dab][Dab][dL]L[Dab][Dab]T; disulfide 2-11; lactam 14-C) | 0.5 | 2 | 0.5 | 4 | 0.25 | 1 | 1 | – | 1 |
